Settings: Liquid; for speed of sound: Frequency=3 MHz, Single path-length method; for mass density: Vibrating tube method

CC(=O)OCCC(C)C [3-methylbutyl ethanoate]
Settings	mass density [kg/m3]	speed of sound [m/s]
293.15 K, 100 kPa	872.9	1213
293.15 K, 500 kPa	874	–
293.15 K, 1000 kPa	874	–
293.15 K, 2500 kPa	875	–
293.15 K, 5000 kPa	877	–
293.15 K, 7500 kPa	879	–
293.15 K, 10000 kPa	881	–
293.15 K, 12500 kPa	883	–
293.15 K, 15000 kPa	885	–
293.15 K, 17500 kPa	887	–
293.15 K, 20000 kPa	889	–
293.15 K, 22500 kPa	891	–
293.15 K, 25000 kPa	893	–
293.15 K, 27500 kPa	895	–
293.15 K, 30000 kPa	896	–
293.15 K, 32500 kPa	898	–
293.15 K, 35000 kPa	899	–
293.15 K, 37500 kPa	901	–
298.15 K, 100 kPa	868	1193
298.15 K, 500 kPa	869	–
298.15 K, 1000 kPa	869	–
298.15 K, 2500 kPa	870	–
298.15 K, 5000 kPa	873	–
298.15 K, 7500 kPa	875	–
298.15 K, 10000 kPa	877	–
298.15 K, 12500 kPa	879	–
298.15 K, 15000 kPa	881	–
298.15 K, 17500 kPa	883	–
298.15 K, 20000 kPa	885	–
298.15 K, 22500 kPa	886	–
298.15 K, 25000 kPa	888	–
298.15 K, 27500 kPa	890	–
298.15 K, 30000 kPa	892	–
298.15 K, 32500 kPa	894	–
298.15 K, 35000 kPa	895	–
298.15 K, 37500 kPa	897	–
313.15 K, 100 kPa	853.3	1132
313.15 K, 500 kPa	854	–
313.15 K, 1000 kPa	854	–
313.15 K, 2500 kPa	856	–
313.15 K, 5000 kPa	858	–
313.15 K, 7500 kPa	861	–
313.15 K, 10000 kPa	863	–
313.15 K, 12500 kPa	865	–
313.15 K, 15000 kPa	867	–
313.15 K, 17500 kPa	869	–
313.15 K, 20000 kPa	871	–
313.15 K, 22500 kPa	873	–
313.15 K, 25000 kPa	875	–
313.15 K, 27500 kPa	877	–
313.15 K, 30000 kPa	879	–
313.15 K, 32500 kPa	881	–
313.15 K, 35000 kPa	883	–
313.15 K, 37500 kPa	885	–
333.15 K, 100 kPa	833.3	1045
333.15 K, 500 kPa	834	–
333.15 K, 1000 kPa	834	–
333.15 K, 2500 kPa	836	–
333.15 K, 5000 kPa	839	–
333.15 K, 7500 kPa	842	–
333.15 K, 10000 kPa	844	–
333.15 K, 12500 kPa	847	–
333.15 K, 15000 kPa	849	–
333.15 K, 17500 kPa	851	–
333.15 K, 20000 kPa	854	–
333.15 K, 22500 kPa	856	–
333.15 K, 25000 kPa	858	–
333.15 K, 27500 kPa	860	–
333.15 K, 30000 kPa	862	–
333.15 K, 32500 kPa	864	–
333.15 K, 35000 kPa	866	–
333.15 K, 37500 kPa	868	–
353.15 K, 500 kPa	814	–
353.15 K, 1000 kPa	814	–
353.15 K, 2500 kPa	816	–
353.15 K, 5000 kPa	819	–
353.15 K, 7500 kPa	823	–
353.15 K, 10000 kPa	825	–
353.15 K, 12500 kPa	828	–
353.15 K, 15000 kPa	831	–
353.15 K, 17500 kPa	834	–
353.15 K, 20000 kPa	836	–
353.15 K, 22500 kPa	839	–
353.15 K, 25000 kPa	841	–
353.15 K, 27500 kPa	843	–
353.15 K, 30000 kPa	846	–
353.15 K, 32500 kPa	848	–
353.15 K, 35000 kPa	850	–
353.15 K, 37500 kPa	852	–
373.15 K, 500 kPa	793	–
373.15 K, 1000 kPa	794	–
373.15 K, 2500 kPa	796	–
373.15 K, 5000 kPa	800	–
373.15 K, 7500 kPa	803	–
373.15 K, 10000 kPa	806	–
373.15 K, 12500 kPa	810	–
373.15 K, 15000 kPa	813	–
373.15 K, 17500 kPa	816	–
373.15 K, 20000 kPa	818	–
373.15 K, 22500 kPa	821	–
373.15 K, 25000 kPa	824	–
373.15 K, 27500 kPa	827	–
373.15 K, 30000 kPa	829	–
373.15 K, 32500 kPa	832	–
373.15 K, 35000 kPa	834	–
373.15 K, 37500 kPa	836	–
393.15 K, 500 kPa	772	–
393.15 K, 1000 kPa	773	–
393.15 K, 2500 kPa	775	–
393.15 K, 5000 kPa	779	–
393.15 K, 7500 kPa	783	–
393.15 K, 10000 kPa	787	–
393.15 K, 12500 kPa	791	–
393.15 K, 15000 kPa	794	–
393.15 K, 17500 kPa	798	–
393.15 K, 20000 kPa	801	–
393.15 K, 22500 kPa	804	–
393.15 K, 25000 kPa	807	–
393.15 K, 27500 kPa	810	–
393.15 K, 30000 kPa	812	–
393.15 K, 32500 kPa	815	–
393.15 K, 35000 kPa	818	–
393.15 K, 37500 kPa	820	–
413.15 K, 500 kPa	750	–
413.15 K, 1000 kPa	751	–
413.15 K, 2500 kPa	754	–
413.15 K, 5000 kPa	759	–
413.15 K, 7500 kPa	763	–
413.15 K, 10000 kPa	768	–
413.15 K, 12500 kPa	772	–
413.15 K, 15000 kPa	776	–
413.15 K, 17500 kPa	779	–
413.15 K, 20000 kPa	783	–
413.15 K, 22500 kPa	786	–
413.15 K, 25000 kPa	790	–
413.15 K, 27500 kPa	793	–
413.15 K, 30000 kPa	796	–
413.15 K, 32500 kPa	799	–
413.15 K, 35000 kPa	802	–
413.15 K, 37500 kPa	805	–
433.15 K, 500 kPa	726	–
433.15 K, 1000 kPa	727	–
433.15 K, 2500 kPa	731	–
433.15 K, 5000 kPa	737	–
433.15 K, 7500 kPa	742	–
433.15 K, 10000 kPa	747	–
433.15 K, 12500 kPa	752	–
433.15 K, 15000 kPa	757	–
433.15 K, 17500 kPa	761	–
433.15 K, 20000 kPa	765	–
433.15 K, 22500 kPa	769	–
433.15 K, 25000 kPa	772	–
433.15 K, 27500 kPa	776	–
433.15 K, 30000 kPa	779	–
433.15 K, 32500 kPa	783	–
433.15 K, 35000 kPa	786	–
433.15 K, 37500 kPa	789	–
453.15 K, 500 kPa	701	–
453.15 K, 1000 kPa	703	–
453.15 K, 2500 kPa	707	–
453.15 K, 5000 kPa	714	–
453.15 K, 7500 kPa	721	–
453.15 K, 10000 kPa	727	–
453.15 K, 12500 kPa	732	–
453.15 K, 15000 kPa	737	–
453.15 K, 17500 kPa	742	–
453.15 K, 20000 kPa	747	–
453.15 K, 22500 kPa	751	–
453.15 K, 25000 kPa	755	–
453.15 K, 27500 kPa	759	–
453.15 K, 30000 kPa	763	–
453.15 K, 32500 kPa	766	–
453.15 K, 35000 kPa	770	–
453.15 K, 37500 kPa	773	–
473.15 K, 500 kPa	674	–
473.15 K, 1000 kPa	676	–
473.15 K, 2500 kPa	682	–
473.15 K, 5000 kPa	691	–
473.15 K, 7500 kPa	698	–
473.15 K, 10000 kPa	705	–
473.15 K, 12500 kPa	712	–
473.15 K, 15000 kPa	717	–
473.15 K, 17500 kPa	723	–
473.15 K, 20000 kPa	728	–
473.15 K, 22500 kPa	733	–
473.15 K, 25000 kPa	738	–
473.15 K, 27500 kPa	742	–
473.15 K, 30000 kPa	746	–
473.15 K, 32500 kPa	750	–
473.15 K, 35000 kPa	754	–
473.15 K, 37500 kPa	757	–

Source: the NIST ThermoML archive (doi:10.1021/acs.jced.9b00396)
